PubChem BioAssay AID743175 (Broad Institute, 2013)
Active and inactive are the calls of the source. The rule behind the calls is not given here.

Test: inhibitor activity on non-replicating M. tuberculosis, dose response, plate reader, dry powder (AID 743175)
Settings: Mycobacterium tuberculosis non-replicating, growth inhibition plate reader; at 23.5 µM (top of the series)
For `COCCNC(=O)C[C@@H]1C[C@@H]2c3cc(NC(=O)Nc4ccc(C(F)(F)F)cc4)ccc3O[C@@H]2[C@H](CO)O1`, the activity change, negative = inhibition was 6.32% (inactive).
With `Cc1noc(C)c1NC(=O)Nc1ccc2c(c1)C(=O)N(C)[C@H]1CC[C@H](CC(=O)NCc3ccc(Cl)cc3)O[C@H]1CO2` the activity change, negative = inhibition was -5.96% (inactive).
In the case of `C[C@@H]1CN([C@@H](C)CO)C(=O)c2ccccc2-c2ccccc2CO[C@H]1CN(C)C(=O)[C@H](C)c1ccccc1`, the activity change, negative = inhibition is reported as 6.24% (inactive).
In the case of `O=C(C[C@@H]1C=C[C@@H](NC(=O)Nc2cc(F)ccc2F)[C@@H](CO)O1)NCc1ccc2c(c1)OCO2`, the activity change, negative = inhibition is reported as 2.62% (inactive).
For `CNC[C@H]1OCCCC[C@@H](C)Oc2ccc(NC(=O)CCCN(C)C)cc2C(=O)N([C@H](C)CO)C[C@@H]1C`, the activity change, negative = inhibition was 0.469% (inactive).
For `C[C@H](C(=O)N(C)C[C@@H]1OCc2ccccc2-c2ccccc2C(=O)N([C@H](C)CO)C[C@H]1C)c1ccccc1`, the activity change, negative = inhibition was -2.02% (inactive).
With `Cc1noc(C)c1NC(=O)Nc1ccc2c(c1)C(=O)N(C)[C@@H]1CC[C@@H](CC(=O)NCc3ccc(Cl)cc3)O[C@H]1CO2` the activity change, negative = inhibition was -4.47% (inactive).

Same assay, conditions: Mycobacterium tuberculosis non-replicating, growth inhibition plate reader; at 26 µM (top of the series)
With `O=C(C[C@H]1C=C[C@@H](NC(=O)Nc2cc(F)ccc2F)[C@@H](CO)O1)NCc1ccc2c(c1)OCO2` the activity change, negative = inhibition was 4.07% (inactive).
In the case of `C[C@@H]1CN([C@H](C)CO)C(=O)c2ccccc2-c2ccccc2CO[C@H]1CN(C)C(=O)[C@H](C)c1ccccc1`, the activity change, negative = inhibition is reported as 3.43% (inactive).
For `COCCNC(=O)C[C@@H]1C[C@H]2c3cc(NC(=O)Nc4ccc(C(F)(F)F)cc4)ccc3O[C@H]2[C@@H](CO)O1`, the activity change, negative = inhibition was 2.69% (inactive).
In the case of `COc1ccccc1C#Cc1ccc([C@H]2[C@@H](C#N)N(C(=O)C3CC3)[C@@H]2CO)cc1`, the activity change, negative = inhibition is reported as -31.8% (inactive).
With `C[C@H](C(=O)N(C)C[C@H]1OCc2ccccc2-c2ccccc2C(=O)N([C@H](C)CO)C[C@@H]1C)c1ccccc1` the activity change, negative = inhibition was -6.85% (inactive).
For `C[C@@H](C(=O)N(C)C[C@@H]1OCc2ccccc2-c2ccccc2C(=O)N([C@@H](C)CO)C[C@@H]1C)c1ccccc1`, the activity change, negative = inhibition was 3.38% (inactive).
With `C[C@@H](C(=O)N(C)C[C@H]1OCc2ccccc2-c2ccccc2C(=O)N([C@@H](C)CO)C[C@@H]1C)c1ccccc1` the activity change, negative = inhibition was -10.5% (inactive).
With `CNC[C@@H]1OCCCC[C@@H](C)Oc2ccc(NC(=O)CCCN(C)C)cc2C(=O)N([C@H](C)CO)C[C@@H]1C` the activity change, negative = inhibition was -5.36% (inactive).
With `C[C@H](CO)N1C[C@H](C)[C@@H](CN(C)C(=O)[C@H](C)c2ccccc2)OCc2ccccc2-c2ccccc2C1=O` the activity change, negative = inhibition was 4.38% (inactive).
With `CNC[C@@H]1OCCCC[C@@H](C)Oc2ccc(NC(=O)CCCN(C)C)cc2C(=O)N([C@H](C)CO)C[C@H]1C` the activity change, negative = inhibition was -0.491% (inactive).
With `O=C(C[C@@H]1C[C@@H]2c3cc(NC(=O)c4cccnc4)ccc3O[C@@H]2[C@H](CO)O1)NCC(F)(F)F` the activity change, negative = inhibition was -0.328% (inactive).
In the case of `C[C@H](C(=O)N(C)C[C@@H]1OCc2ccccc2-c2ccccc2C(=O)N([C@H](C)CO)C[C@@H]1C)c1ccccc1`, the activity change, negative = inhibition is reported as -7.59% (inactive).
In the case of `O=C(C[C@H]1C[C@H]2c3cc(NC(=O)c4cccnc4)ccc3O[C@H]2[C@H](CO)O1)NCC(F)(F)F`, the activity change, negative = inhibition is reported as 10.5% (inactive).
For `COCCNC(=O)C[C@H]1C[C@@H]2c3cc(NC(=O)Nc4ccc(C(F)(F)F)cc4)ccc3O[C@@H]2[C@H](CO)O1`, the activity change, negative = inhibition was -0.81% (inactive).
With `C[C@H](C(=O)N(C)C[C@H]1OCc2ccccc2-c2ccccc2C(=O)N([C@@H](C)CO)C[C@H]1C)c1ccccc1` the activity change, negative = inhibition was -0.472% (inactive).
With `O=C(C[C@H]1C=C[C@@H](NC(=O)Nc2cc(F)ccc2F)[C@H](CO)O1)NCc1ccc2c(c1)OCO2` the activity change, negative = inhibition was -2.19% (inactive).
With `O=C(C[C@@H]1C=C[C@H](NC(=O)Nc2cc(F)ccc2F)[C@@H](CO)O1)NCc1ccc2c(c1)OCO2` the activity change, negative = inhibition was -6.79% (inactive).
With `Cc1noc(C)c1NC(=O)Nc1ccc2c(c1)C(=O)N(C)[C@H]1CC[C@H](CC(=O)NCc3ccc(Cl)cc3)O[C@@H]1CO2` the activity change, negative = inhibition was -8.85% (inactive).
For `O=C(C[C@@H]1C=C[C@@H](NC(=O)Nc2cc(F)ccc2F)[C@H](CO)O1)NCc1ccc2c(c1)OCO2`, the activity change, negative = inhibition was -1.51% (inactive).
With `COCCNC(=O)C[C@H]1C[C@H]2c3cc(NC(=O)Nc4ccc(C(F)(F)F)cc4)ccc3O[C@H]2[C@@H](CO)O1` the activity change, negative = inhibition was 6.87% (inactive).
In the case of `C[C@@H]1CN([C@@H](C)CO)C(=O)c2ccccc2-c2ccccc2CO[C@@H]1CN(C)C(=O)[C@H](C)c1ccccc1`, the activity change, negative = inhibition is reported as 5.94% (inactive).
With `Cc1noc(C)c1NC(=O)Nc1ccc2c(c1)C(=O)N(C)[C@@H]1CC[C@@H](CC(=O)NCc3ccc(Cl)cc3)O[C@@H]1CO2` the activity change, negative = inhibition was -1.24% (inactive).
In the case of `COCCNC(=O)C[C@@H]1C[C@H]2c3cc(NC(=O)Nc4ccc(C(F)(F)F)cc4)ccc3O[C@H]2[C@H](CO)O1`, the activity change, negative = inhibition is reported as -6% (inactive).
With `C[C@H](C(=O)N(C)C[C@H]1OCc2ccccc2-c2ccccc2C(=O)N([C@H](C)CO)C[C@H]1C)c1ccccc1` the activity change, negative = inhibition was -2.72% (inactive).
In the case of `C[C@H](CO)N1C[C@H](C)[C@H](CN(C)C(=O)[C@H](C)c2ccccc2)OCc2ccccc2-c2ccccc2C1=O`, the activity change, negative = inhibition is reported as -5.31% (inactive).
With `Cc1noc(C)c1NC(=O)Nc1ccc2c(c1)C(=O)N(C)[C@@H]1CC[C@H](CC(=O)NCc3ccc(Cl)cc3)O[C@@H]1CO2` the activity change, negative = inhibition was -6.75% (inactive).
For `O=C(C[C@H]1C=C[C@H](NC(=O)Nc2cc(F)ccc2F)[C@H](CO)O1)NCc1ccc2c(c1)OCO2`, the activity change, negative = inhibition was 2.59% (inactive).
In the case of `O=C(C[C@H]1C[C@H]2c3cc(NC(=O)c4cccnc4)ccc3O[C@H]2[C@@H](CO)O1)NCC(F)(F)F`, the activity change, negative = inhibition is reported as 4.47% (inactive).
In the case of `Cc1noc(C)c1NC(=O)Nc1ccc2c(c1)C(=O)N(C)[C@H]1CC[C@@H](CC(=O)NCc3ccc(Cl)cc3)O[C@H]1CO2`, the activity change, negative = inhibition is reported as 0.473% (inactive).
With `CNC[C@H]1OCCCC[C@H](C)Oc2ccc(NC(=O)CCCN(C)C)cc2C(=O)N([C@@H](C)CO)C[C@@H]1C` the activity change, negative = inhibition was -0.478% (inactive).
For `CNC[C@H]1OCCCC[C@H](C)Oc2ccc(NC(=O)CCCN(C)C)cc2C(=O)N([C@H](C)CO)C[C@@H]1C`, the activity change, negative = inhibition was 0.293% (inactive).
With `C[C@H](C(=O)N(C)C[C@@H]1OCc2ccccc2-c2ccccc2C(=O)N([C@@H](C)CO)C[C@@H]1C)c1ccccc1` the activity change, negative = inhibition was -3.21% (inactive).

Same assay, conditions: Mycobacterium tuberculosis non-replicating, growth inhibition plate reader; at 38 µM (top of the series)
In the case of `O=C(OCc1ccc(Cl)c(Cl)c1)c1ccccn1`, the activity change, negative = inhibition is reported as -7.55% (inactive).
In the case of `NC(=O)COc1ccc2cc(-c3ccc(F)cc3)c(=O)oc2c1`, the activity change, negative = inhibition is reported as -7.91% (inactive).
In the case of `O=C(OCCCCN1C(=O)c2ccccc2C1=O)c1ccc(Br)o1`, the activity change, negative = inhibition is reported as -2.9% (inactive).
For `CCCC(C)C(=O)Nc1ccc(Cl)cn1` (configuration not stated), the activity change, negative = inhibition was -14.4% (inactive).
In the case of `C=CCn1c(NC(=O)c2ccccc2)nc2ccccc21`, the activity change, negative = inhibition is reported as -76.7% (inactive).
For `CCCOC(=O)c1ccc(NC(=O)c2ccc(Br)o2)cc1`, the activity change, negative = inhibition was -12.8% (inactive).
With `CC(=O)c1ccc(NC(=O)c2cc(CC(C)C)on2)cc1` the activity change, negative = inhibition was -14.7% (inactive).
With `Fc1ccc(-c2ccc(CNCc3ccccn3)o2)cc1Cl` the activity change, negative = inhibition was -52% (inactive).
